From patent US20060019400A1, “Method for the determination of glucuronides in physiological samples” (University of Maryland, priority 2004, published 2006)

Key:
[1] = Ethyl glucuronide levels in postmortem urine by SPE and HPLC-PED; set-up: species or system human; conditions: in vivo
Procedure: A ternary gradient solvent delivery pump 106 (Model 8800; Spectra Physics, Mountain View, Calif.) equipped with mixing chamber 104 and on-line degasser unit 102 (Model KT-35M; Shodex, Clear Brook, Va.) were used to provide solvent delivery to analytical column 110. In certain embodiments, isocratic separations are performed using a 1% acetic acid/water:acetonitrile (98:2, v/v) mobile phase set to a flow rate of 1.0 mL ? min-1. Injection valve 108 (Model 7010; Rheodyne, Rohnert Park, Calif.) is fitted with a 50 μL injection loop. Separations can be performed using any suitable analytical column, selected based upon the glucuronide(s) of interest. For example, a reversed-phase (C18; 250×4.6 mm, 5 μm, 100 Å) Denali column (Vydac, Columbia, Md.) with guard column (C18; 7.5×4.6 mm, 5 μm; Vydac) can be used, or a bonded-phase silica column comprising a C18 functional group bonded to its surface using a sulfonamide group coupled to an ether linkage (DIONEX® PA column, DIONEX®, Sunnyvale, Calif.) can be used. Post-column addition of NaOH 112 (for example, 600 mM NaOH), necessary to promote PED-activity, was accomplished by a reagent delivery module (RDM, Dionex, Sunnyvale, Calif.). […]
All urine samples (1.0 mL) were pretreated with 100 μL of 3 M HCl and 3 mL acetonitrile. […] The reconstituted solution was diluted further to bring EtG within the linear range of quantitation. […]

[2] = after alcohol consumption; cited from earlier work

## CCO[C@@H]1O[C@H](C(=O)O)[C@@H](O)[C@H](O)[C@H]1O [EtG, Ethyl glucuronide]
[1]
  EtG levels in postmortem samples: 3 to 700 µg/mL
[2]
  period of detection after the complete elimination of alcohol from the body: up to 80 h
